From patent US20120264735A1 (priority 2009, published 2012)
Counter-ions that a name gives are not always drawn.

Molecular target: T1, c-Met kinase (recombinant c-Met) (Homo sapiens, UniProt P08581)
T1 construct: 0.27 nM recombinant c-Met
Experiment: In vitro kinase assay I (homogeneous time-resolved fluorescence tyrosine kinase assay)
Assay type: biochemical
How it was run: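 Biotinylated peptide (0.5 μM) phosphorylated by 0.2 nM recombinant c-Met with 50 μM MgATP, 60 min at room temperature, pH 7.4, 5% DMSO. EDTA stop; HTRF read with Eu-anti-phosphotyrosine antibody and streptavidin-APC. IC50 from 4-parameter logistic fit.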

T1 sequence (P08581 25-1390): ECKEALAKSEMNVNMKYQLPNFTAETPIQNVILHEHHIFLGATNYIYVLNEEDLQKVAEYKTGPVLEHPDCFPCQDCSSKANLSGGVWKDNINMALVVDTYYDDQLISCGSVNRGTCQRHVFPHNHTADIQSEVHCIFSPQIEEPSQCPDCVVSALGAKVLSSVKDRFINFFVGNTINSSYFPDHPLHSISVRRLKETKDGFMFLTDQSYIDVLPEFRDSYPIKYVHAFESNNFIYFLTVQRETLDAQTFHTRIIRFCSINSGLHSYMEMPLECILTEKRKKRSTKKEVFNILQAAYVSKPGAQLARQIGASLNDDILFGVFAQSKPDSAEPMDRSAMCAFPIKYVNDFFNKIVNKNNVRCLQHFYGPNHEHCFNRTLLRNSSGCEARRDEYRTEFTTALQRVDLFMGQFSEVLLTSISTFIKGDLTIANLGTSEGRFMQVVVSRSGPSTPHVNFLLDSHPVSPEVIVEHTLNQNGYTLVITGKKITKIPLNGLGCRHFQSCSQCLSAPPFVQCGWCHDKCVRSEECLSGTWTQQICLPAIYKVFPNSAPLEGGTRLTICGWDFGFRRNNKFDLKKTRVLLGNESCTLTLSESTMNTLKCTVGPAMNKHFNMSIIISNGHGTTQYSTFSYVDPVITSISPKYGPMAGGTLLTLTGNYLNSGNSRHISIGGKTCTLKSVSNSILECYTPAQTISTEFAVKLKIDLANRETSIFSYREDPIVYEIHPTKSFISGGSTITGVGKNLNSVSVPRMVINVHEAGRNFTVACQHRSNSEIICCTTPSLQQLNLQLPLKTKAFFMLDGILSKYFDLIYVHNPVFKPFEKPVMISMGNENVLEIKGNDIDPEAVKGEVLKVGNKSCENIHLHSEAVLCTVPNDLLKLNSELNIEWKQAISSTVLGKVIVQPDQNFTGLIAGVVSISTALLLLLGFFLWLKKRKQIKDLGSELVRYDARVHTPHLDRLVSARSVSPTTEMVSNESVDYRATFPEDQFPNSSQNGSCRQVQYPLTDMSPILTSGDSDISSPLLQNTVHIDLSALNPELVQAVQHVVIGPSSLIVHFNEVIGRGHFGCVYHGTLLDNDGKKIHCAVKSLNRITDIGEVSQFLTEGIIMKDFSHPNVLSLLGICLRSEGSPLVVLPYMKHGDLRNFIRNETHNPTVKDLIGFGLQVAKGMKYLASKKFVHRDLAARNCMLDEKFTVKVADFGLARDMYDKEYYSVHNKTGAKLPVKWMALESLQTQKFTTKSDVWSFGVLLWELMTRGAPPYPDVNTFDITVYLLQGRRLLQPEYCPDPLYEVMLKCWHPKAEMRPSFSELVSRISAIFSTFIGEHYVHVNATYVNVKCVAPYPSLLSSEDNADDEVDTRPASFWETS

IC50 [nM]	SMILES
100 to 1000	CCOc1cnc2ccc(Cc3nn(-c4cnn(CC)c4)ccc3=O)cc2c1 [Example 160, 3-[(3-ethoxyquinolin-6-yl)methyl]-1-(1-ethyl-1H-pyrazol-4-yl)pyridazin-4(1H)-one]
< 100	CN1CCN(c2cnc(-c3cccc(Cc4nn(-c5cnn(C)c5)ccc4=O)c3)nc2)CC1 [Example 467, 3-{3-[5-(4-methyl-piperazin-1-yl)pyrimidin-2-yl]benzyl}-1-(1-methyl-1H-pyrazol-4-yl)pyridazin-4(1H)-one]
< 100	Cn1cc(-n2ccc(=O)c(Cc3ccc4ncc(OCC5CCOC5)cc4c3)n2)cn1 (racemic) [Example 64, rac-1-(1-methyl-1H-pyrazol-4-yl)-3-{[3-(tetrahydrofuran-3-ylmethoxy)quinolin-6-yl]methyl}pyridazin-4(1H)-one]
< 100	CC(C)COC(=O)Nc1cccc(Cc2nn(-c3cnn(CCO)c3)ccc2=O)c1 [Example 645, 2-methylpropyl [3-({1-[1-(2-hydroxyethyl)-1H-pyrazol-4-yl]-4-oxo-1,4-dihydropyridazin-3-yl}methyl)phenyl] carbamate]
100 to 1000	CCOc1cnc(-c2cc(Cc3nn(-c4cnn(C)c4)ccc3=O)ccc2F)nc1 [Example 119, 3-[3-(5-ethoxypyrimidin-2-yl)-4-fluorobenzyl]-1-(1-methyl-1H-pyrazol-4-yl)pyridazin-4(1H)-one]
100 to 1000	CCCOC(=O)Nc1cccc(Cc2nn(-c3cnn(CC4CCOCC4)c3)ccc2=O)c1 [Example 101, propyl [3-({4-oxo-1-[1-(tetrahydro-2H-pyran-4-ylmethyl)-1H-pyrazol-4-yl]-1,4-dihydropyridazin-3-yl}methyl)phenyl]carbamate]
< 100	COCCNC(=O)Nc1cccc(Cc2nn(-c3cnn(C)c3)ccc2=O)c1 [Example 493, 1-(2-methoxyethyl)-3-(3-{[1-(1-methyl-1H-pyrazol-4-yl)-4-oxo-1,4-dihydropyridazin-3-yl]methyl}phenyl)urea]
< 100	Cn1cc(-n2ccc(=O)c(Cc3cccc(-c4ncc(OCC(=O)O)cn4)c3)n2)cn1 [Example 357, [2-(3-{[1-(1-Methyl-1H-pyrazol-4-yl)-4-oxo-1,4-dihydropyridazin-3-yl]methyl}phenyl)pyrimidin-5-yl]oxyacetic acid]
< 100	Cn1cc(-n2ccc(=O)c(Cc3cccc(-c4ncc(O[C@@H]5CCC[C@H]5O)cn4)c3)n2)cn1 (single isomer, unassigned) [Example 378]
< 100	Cn1cc(-n2ccc(=O)c(Cc3cccc(-c4nc[nH]n4)c3)n2)cn1 [Example 186, 1-(1-Methyl-1H-pyrazol-4-yl)-3-[3-(1H-1,2,4-triazol-3-yl)benzyl]pyridazin-4(1H)-one hydrochloride]
1000 to 3000	CCOC(=O)c1coc(-c2cccc(Cc3nn(-c4cnn(C)c4)ccc3=O)c2)n1 [Example 674, ethyl 2-(3-{[1-(1-methyl-1H-pyrazol-4-yl)-4-oxo-1,4-dihydropyridazin-3-yl]methyl}phenyl)-1,3-oxazole-4-carboxylate]
< 100	O=c1ccn(-c2cc(F)cc(F)c2)nc1Cc1cccc(-c2ncc(OCC3CCOCC3)cn2)c1 [Example 331, 1-(3,5-difluorophenyl)-3-{3-[5-(tetrahydro-2H-pyran-4-ylmethoxy)pyrimidin-2-yl]benzyl}pyridazin-4(1H)-one]
< 100	CCn1cnc(-c2cccc(Cc3nn(-c4ccc(F)c(F)c4)ccc3=O)c2)n1 [Example 82, 1-(3,4-difluorophenyl)-3-[3-(1-ethyl-1H-1,2,4-triazol-3-yl)benzyl]pyridazin-4(1H)-one]
< 100	CCCOC(=O)Nc1cccc(Cc2nn(-c3ccc(OC)nc3)ccc2=O)c1 [Example 32, propyl (3-{[1-(6-methoxypyridin-3-yl)-4-oxo-1,4-dihydropyridazin-3-yl]methyl}phenyl)carbamate]
1000 to 3000	Cn1cc(-n2ccc(=O)c(C(F)c3ccc4ncccc4c3)n2)cn1 (racemic) [Example 753, rac-3-[Fluoro(quinolin-6-yl)methyl]-1-(1-methyl-1H-pyrazol-4-yl)pyridazin-4(1H)-one]
< 100	CC(C)COC(=O)Nc1cccc(Cc2nn(-c3cnn(CCCC(=O)N4CCCCC4)c3)ccc2=O)c1 [Example 699, 2-methylpropyl [3-({4-oxo-1-[1-(4-oxo-4-piperidin-1-ylbutyl)-1H-pyrazol-4-yl]-1,4-dihydropyridazin-3-yl}methyl)phenyl] carbamate]
< 100	COc1ccc(CNC(=O)Nc2cccc(Cc3nn(-c4cnn(C)c4)ccc3=O)c2)cc1 [Example 495, 1-(4-methoxybenzyl)-3-(3-{[1-(1-methyl-1H-pyrazol-4-yl)-4-oxo-1,4-dihydropyridazin-3-yl]methyl}phenyl)urea]

IC50 [nM]	SMILES
< 100	CCOC(=O)Nc1cccc(C(F)c2nn(-c3cnn(C)c3)ccc2=O)c1 (racemic) [Example 639, rac-Ethyl(3-{fluoro[1-(1-methyl-1H-pyrazol-4-yl)-4-oxo-1,4-dihydropyridazin-3-yl]methyl}phenyl)carbamate]
100 to 1000	Cn1cc(-n2ccc(=O)c(Cc3cccc(-c4ccn(C)n4)c3)n2)cn1 [Example 39, 1-(1-methyl-1H-pyrazol-4-yl)-3-[3-(1-methyl-1H-pyrazol-3-yl)benzyl]pyridazin-4(1H)-one]
< 100	CC(C)COC(=O)Nc1cccc(Cc2nn(-c3cnn(C(C)C)c3)ccc2=O)c1 [Example 105, 2-methylpropyl [3-({1-[1-(1-methylethyl)-1H-pyrazol-4-yl]-4-oxo-1,4-dihydropyridazin-3-yl}methyl)phenyl]carbamate]
< 100	CC(c1cccc(-c2ncc(OCC(C)(C)O)cn2)c1)c1nn(-c2ccc(F)c(F)c2)ccc1=O (single isomer, unassigned) [Example 250, 1-(3,4-difluorophenyl)-3-[(1R or S)-1-{3-[5-(2-hydroxy-2-methylpropoxy)pyrimidin-2-yl]phenyl}ethyl]pyridazin-4(1H)-one]
< 100	COCCOc1cnc(-c2cccc(Cc3nn(-c4ccc(F)c(F)c4)ccc3=O)c2)nc1 [Example 317, 1-(3,4-difluorophenyl)-3-{3-[5-(2-methoxyethoxy)pyrimidin-2-yl]benzyl}pyridazin-4(1H)-one]
< 100	Cn1cc(-n2ccc(=O)c(Cc3cccc(NC(=O)OCC(F)CN)c3)n2)cn1 (racemic) [Example 621, rac-3-amino-2-fluoropropyl (3-{[1-(1-methyl-1H-pyrazol-4-yl)-4-oxo-1,4-dihydropyridazin-3-yl]methyl}phenyl)carbamate]
< 100	Cn1cc(-n2ccc(=O)c(Cc3cccc(-c4ncc(N5CCC(O)C5)cn4)c3)n2)cn1 (racemic) [Example 440, rac-3-{3-[5-(3-Hydroxypyrrolidin-1-yl)pyrimidin-2-yl]benzyl}-1-(1-methy 1H-pyrazol-4-yl)pyridazin-4(1H)-one]
< 100	N#Cc1cc(F)cc(-n2ccc(=O)c(Cc3cccc(NC(=O)OCC4CCOC4)c3)n2)c1 (racemic) [Example 131, rac-tetrahydrofuran-3-ylmethyl (3-{[1-(3-cyano-5-fluorophenyl)-4-oxo-1,4-dihydropyridazin-3-yl]methyl}phenyl)carbamate]
< 100	Cn1cc(-n2ccc(=O)c(Cc3cccc(-c4ncc(O[C@H]5CC[C@H](O)CC5)cn4)c3)n2)cn1 [Example 747, 3-(3-{5-[(trans-4-hydroxycyclohexyl)oxy]pyrimidin-2-yl}benzyl)-1-(1-methyl-1H-pyrazol-4-yl)pyridazin-4(1H)-one]
< 100	Cn1cc(-n2ccc(=O)c(Cc3cccc(NC(=O)OCCCN4CCOCC4)c3)n2)cn1 [Example 537, 3-morpholin-4-ylpropyl (3-{[1-(1-methyl-1H-pyrazol-4-yl)-4-oxo-1,4-dihydropyridazin-3-yl]methyl}phenyl)carbamate]
< 100	CC(c1cccc(-c2ncc(OCC(C)(C)O)cn2)c1)c1nn(-c2cnn(C)c2)ccc1=O (single isomer, unassigned) [Example 380, 3-((1S or R)-1-{3-[5-(2-hydroxy-2-methylpropoxy)pyrimidin-2-yl]phenyl}ethyl)-1-(1-methyl-1H-pyrazol-4-yl)pyridazin-4(1H)-one]
100 to 1000	Cn1cc(-n2ccc(=O)c(Cc3cccc(-c4ncc(NC(=O)CC5CCCO5)cn4)c3)n2)cn1 (racemic) [Example 464, rac-N-[2-(3-{[1-(1-methyl-1H-pyrazol-4-yl)-4-oxo-1,4-dihydro-pyridazin-3-yl]methyl}phenyl)pyrimidin-5-yl]-2-(tetrahydro-furan-2-yl)acetamide]
< 100	COCCOC(=O)Nc1cccc(C(C)c2nn(-c3cnn(C)c3)ccc2=O)c1 (single isomer, unassigned) [Example 652, 2-methoxyethyl (3-{(1S or R)-1-[1-(1-methyl-1H-pyrazol-4-yl)-4-oxo-1,4-dihydropyridazin-3-yl]ethyl}phenyl)carbamate]
< 100	Cn1cc(-n2ccc(=O)c(Cc3cccc(NC(=O)OCCC4CCOCC4)c3)n2)cn1 [Example 565, 2-(tetrahydro-2H-pyran-4-yl)ethyl (3-{[1-(1-methyl-1H-pyrazol-4-yl)-4-oxo-1,4-dihydropyridazin-3-yl]methyl}phenyl)carbamate]
100 to 1000	CC(C)COC(=O)Nc1cccc(Cc2nn(-c3cnn(CCCN(C)C)c3)ccc2=O)c1 [Example 667, 2-Methylpropyl {3-[(1-{1-[3-(dimethylamino)propyl]-1H-pyrazol-4-yl}-4-exo-1,4-dihydropyridazin-3-yl)methyl]phenyl}carbamate]
< 100	Cn1cc(-n2ccc(=O)c(Cc3cccc(-c4ncc(CN5CCNCC5)cn4)c3)n2)cn1 [Example 433]
< 100	Cn1cc(-n2ccc(=O)c(Cc3cccc(-c4ncc(OCc5ccccn5)cn4)c3)n2)cn1 [Example 354, 1-(1-methyl-1H-pyrazol-4-yl)-3-{3-[5-(pyridin-2-ylmethoxy)pyrimidin-2-yl]benzyl}pyridazin-4(1H)-one]
